Test [1] deals with COX-1 (Ovis aries, UniProt P05979). As to the kind of experiment: COX-1 inhibition assay (as disclosed in Chem. Med. Chem. 2012, 7, 629-641). Format: biochemical.
Procedure: The biological assays were carried out as disclosed in Chem. Med. Chem. 2012, 7, 629 - 641.
The test system of test [2] is ovarian surface epithelial cells allografted in female nude mice. To be noted: after treatment with SC-560, recent reports; cited from earlier work.

This is an account of results in EP2948187B1, “HETEROCYCLES AND THEIR RADIOLABELED ANALOGS USEFUL AS COX-1 SELECTIVE INHIBITORS” (Universita' Degli Studi di Bari, priority 2013, dated 2014).

Molecules are shown by their SMILES.

Sequence of COX-1 (P05979 25-600): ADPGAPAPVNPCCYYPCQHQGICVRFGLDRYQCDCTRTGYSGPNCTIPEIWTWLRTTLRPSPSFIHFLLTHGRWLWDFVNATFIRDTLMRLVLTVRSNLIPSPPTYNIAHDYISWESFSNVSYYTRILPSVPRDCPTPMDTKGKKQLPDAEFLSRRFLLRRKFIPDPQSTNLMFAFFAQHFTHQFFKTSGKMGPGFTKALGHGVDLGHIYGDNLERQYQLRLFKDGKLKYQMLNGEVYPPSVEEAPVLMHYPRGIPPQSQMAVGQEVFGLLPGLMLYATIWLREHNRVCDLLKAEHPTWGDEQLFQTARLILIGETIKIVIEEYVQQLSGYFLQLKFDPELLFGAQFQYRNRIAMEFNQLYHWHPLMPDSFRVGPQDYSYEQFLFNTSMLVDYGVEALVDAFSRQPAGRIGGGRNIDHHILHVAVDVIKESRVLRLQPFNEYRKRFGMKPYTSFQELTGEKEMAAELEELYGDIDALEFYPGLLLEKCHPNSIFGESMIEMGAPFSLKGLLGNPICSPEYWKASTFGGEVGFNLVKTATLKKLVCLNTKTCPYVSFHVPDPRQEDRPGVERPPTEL

For `COc1ccc(-c2noc(C)c2-c2ccc(OC)cc2)cc1` [(III), 3,4-bis(4-methoxyphenyl)-5-methylisoxazole], the IC50 (usually the concentration that inhibits the measured activity by half) in test [1] is 76 nM. With `COc1ccc(-n2nc(C(F)(F)F)cc2-c2ccc(Cl)cc2)cc1` [SC-560], the tumor growth entry in test [2] is “significantly reduction of tumor growth”.
